Measurements reported in patent publication US6942874B2, “Nucleotide compounds that block the bitter taste of oral compositions” (Linguagen Corp., priority 2001, dated 2005).

System: transducin
Test: [35S] GTPγS binding assay: transducin activation by bitter-stimulated taste membranes
Type: biochemical, bovine
Description: Since G proteins have an intrinsic GTPase activity, which terminates the activation cycle, a radioactive nonhydrolyzable analogue of GTR such as [^35S] GTPγS or [^3H] GppNHp must be used. To test for the inhibitory activity of nucleotide compounds, several modifications of the standard [^35S] GTPγS binding assay were made to efficiently measure activation by bitter responsive receptors that couple to gustducin or transducin ([…] et al., in preparation). To maximize the bitter dependent change in radiolabel uptake GDP:GTPγS ratios, buffer composition, and specific activity of the [^35S] GTPγS were adjusted. […] Radionucleotide bound to transducin can be measured by filter binding followed by washing to remove unbound label (Asano et al., 1984 Biochemistry 23:5460-5467). The final concentrations in the [^35S] GTPγS binding assay mix are 10 mM HEPES pH 7.5, 5 mM MgCl2, 50 mM NaCl, 1 mM dithiolthreitol, 10 μM GDP, 1 μM [^35S] GTPγS (0.1 μCi/sample), 0.5 μg/0.05 ml transducin heterotrimer. A 2× stock of the above mixture is added to the bitter compound. Reactions are started by addition of 5 μg/0.05 ml bovine circumvallate membranes and the sample volume is adjusted to […] with water. Samples are incubated at room temperature (25±2° C. for 2 hours). Long incubation times are necessary due to the low density of receptors in the membranes. Similar results are obtained with high dilutions of rhodopsin. Samples are then filtered through BA-85 nitrocellulose filters and washed 3 times with 3 ml of 50 mM Tris-HCl pH 7.5, 4 mM MgCl2, and 0.1 M NaCl. Filters are dried, placed in scintillation fluid and the radioactivity is determined by scintillation counting. Experiments are performed in triplicate with several concentrations of the tastant of interest. Controls include: (i) a rhodopsin positive control, (ii) a no tastant negative control and (iii) a no membrane control +/-tastants.

- [35S] GTPγS radiolabel binding to transducin (10 mM, with circumvallate membranes, vs membranes alone, Student's t-test, FIG. 1A): increased radiolabel binding
- activation of transducin relative to maximal rhodopsin stimulated [35S] GTPγS binding (denatonium 10 mM, with bovine circumvallate membranes, FIG. 1A): ~40%
Structure (SMILES): CC[N+](CC)(CC(=O)Nc1c(C)cccc1C)Cc1ccccc1 [denatonium]
- concentration dependence of transducin activation (in the presence of circumvallate membranes, FIG. 1B): concentration dependent activation of transducin
